The structures appear in SMILES notation.

This note sets out measurements from ChEMBL document CHEMBL1145610, “N-Acetylhexosaminidase inhibitory properties of C-1 homologated GlcNAc- and GalNAc-thiazolines” (Bioorg Med Chem Lett, 2008).

In the test the target is T1, B-N-acetylhexosaminidase (Streptomyces plicatus, UniProt O85361).
T1 sequence (O85361 whole entry): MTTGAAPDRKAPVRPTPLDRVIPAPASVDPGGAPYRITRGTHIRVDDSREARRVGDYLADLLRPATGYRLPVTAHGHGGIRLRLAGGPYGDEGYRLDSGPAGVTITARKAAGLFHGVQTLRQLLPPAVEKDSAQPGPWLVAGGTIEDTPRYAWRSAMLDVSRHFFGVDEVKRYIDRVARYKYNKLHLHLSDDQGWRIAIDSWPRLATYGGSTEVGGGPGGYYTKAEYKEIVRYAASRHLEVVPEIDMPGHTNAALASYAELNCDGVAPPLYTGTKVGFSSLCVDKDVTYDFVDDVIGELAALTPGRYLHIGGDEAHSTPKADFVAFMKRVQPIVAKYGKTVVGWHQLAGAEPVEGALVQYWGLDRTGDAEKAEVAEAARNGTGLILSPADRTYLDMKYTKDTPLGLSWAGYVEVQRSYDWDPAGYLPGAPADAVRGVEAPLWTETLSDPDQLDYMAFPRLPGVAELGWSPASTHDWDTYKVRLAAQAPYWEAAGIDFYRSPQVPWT
Nature of the test: Inhibition of Streptomyces plicatus N-acetyl-hexosaminidase.
`CC1=N[C@@H]2[C@@H](O)[C@@H](O)[C@@H](CO)O[C@]2(CNC(=O)OC(C)(C)C)S1`: the Ki is more than 2000 µM.
As for `CC1=N[C@@H]2[C@@H](O)[C@H](O)[C@@H](CO)O[C@@H]2S1`, the figure is 20 µM.
To `CC1=N[C@@H]2[C@@H](O)[C@@H](O)[C@@H](CO)O[C@]2(CN)S1` belongs more than 2000 µM; to `CC1=N[C@@H]2[C@@H](O)[C@@H](O)[C@@H](CO)O[C@@H]2S1`, 100 µM.
To `CC1=N[C@@H]2[C@@H](O)[C@H](O)[C@@H](CO)O[C@]2(C)S1` belongs 200 µM; to `Cc1nc2c(s1)O[C@H](CO)[C@H](O)[C@@H]2O`, 1600 µM; to `CC(=O)NC1NC[C@H](CO)[C@H](O)[C@@H]1O` (single isomer, unassigned), 21 µM.
